Laboratory results taken from the NIST ThermoML archive (doi:10.1016/j.fluid.2013.06.041).

Experiment: xn = mol fraction of the nth substance listed
Settings: 101 kPa, Liquid, Small sample (50 mg) DSC

OCCCO [propan-1,3-diol] + O
excess molar heat capacity [J/K/mol]
Settings | 283.15 K | 293.15 K | 298.15 K | 303.15 K | 313.15 K
x1 = 0.02483 | 1.28 | 1.4 | 1.43 | 1.44 | 1.46
x1 = 0.03693 | 1.89 | 2.08 | 2.13 | 2.16 | 2.26
x1 = 0.05016 | 2.35 | 2.72 | 2.83 | 2.9 | 2.99
x1 = 0.07515 | 2.54 | 3.22 | 3.44 | 3.59 | 3.8
x1 = 0.1401 | 2.24 | 3.61 | 4.11 | 4.52 | 5.08
x1 = 0.1504 | 2.2 | 3.67 | 4.21 | 4.64 | 5.27
x1 = 0.299 | 1.59 | 3.18 | 3.84 | 4.43 | 5.44
x1 = 0.3982 | 1.31 | 2.66 | 3.28 | 3.85 | 4.81
x1 = 0.4976 | 1.26 | 2.34 | 2.82 | 3.25 | 4.02
x1 = 0.5955 | 1.15 | 1.92 | 2.33 | 2.74 | 3.48
x1 = 0.7025 | – | 1.71 | 1.95 | 2.2 | 2.64
x1 = 0.7902 | 0.98 | 1.19 | 1.3 | 1.4 | 1.49
x1 = 0.9455 | 0.48 | 0.53 | 0.58 | 0.61 | 0.55

OCCCCO [1,4-butanediol] + O
excess molar heat capacity [J/K/mol]
Settings | 283.15 K | 293.15 K | 298.15 K | 303.15 K | 313.15 K
x1 = 0.00538 | 1.24 | 1.14 | 1.06 | 1.01 | 1.1
x1 = 0.01312 | 2.19 | 2.16 | 2.08 | 2.01 | 1.92
x1 = 0.02505 | 3.41 | 3.49 | 3.5 | 3.52 | 3.58
x1 = 0.02518 | 3.17 | 3.34 | 3.32 | 3.28 | 3.33
x1 = 0.03528 | 4.45 | 4.6 | 4.58 | 4.53 | 4.52
x1 = 0.04842 | 5.39 | 5.61 | 5.64 | 5.65 | 5.67
x1 = 0.0574 | 6.22 | 6.53 | 6.59 | 6.62 | 6.68
x1 = 0.07589 | 6.43 | 7.15 | 7.34 | 7.46 | 7.6
x1 = 0.08236 | 6.7 | 7.51 | 7.71 | 7.85 | 8.09
x1 = 0.09032 | 6.66 | 7.65 | 7.89 | 8.04 | 8.25
x1 = 0.1005 | 6.94 | 8.03 | 8.38 | 8.63 | 8.9
x1 = 0.1396 | 6.87 | 8.33 | 8.81 | 9.17 | 9.74
x1 = 0.1403 | 6.85 | 8.37 | 8.87 | 9.24 | 9.77
x1 = 0.1868 | 6.33 | 8.24 | 9.84 | 10.39 | 11.21
x1 = 0.2961 | 5.63 | 7.75 | 8.91 | 9.42 | 10.66
x1 = 0.3972 | 4.75 | 6.83 | 7.7 | – | 10.31
x1 = 0.4965 | 4.04 | 5.92 | 6.8 | 7.63 | 9.13
x1 = 0.5659 | 3.29 | 5.08 | 5.88 | 6.64 | 8.11
x1 = 0.7004 | 2.95 | 4.32 | 4.96 | 5.57 | 6.8
x1 = 0.7964 | 2.92 | 3.47 | 3.89 | 4.33 | 5.14
x1 = 0.8873 | 1.38 | 2.21 | 2.5 | 2.79 | 3.63
x1 = 0.9398 | 0.81 | 1.14 | 1.34 | 1.56 | 2.03

CC(O)CO (centres undefined) [1,2-propanediol] + O
excess molar heat capacity [J/K/mol]
Settings | 283.15 K | 293.15 K | 298.15 K | 303.15 K | 313.15 K
x1 = 0.02216 | 1.78 | 2.01 | 1.98 | 1.95 | 1.84
x1 = 0.05617 | 3.3 | 3.57 | 3.62 | 3.63 | 3.59
x1 = 0.07845 | 4.67 | 5.18 | 5.29 | 5.35 | 5.39
x1 = 0.1224 | 5.38 | 6.18 | 6.43 | 6.6 | 6.81
x1 = 0.1545 | 5.22 | 6.19 | 6.5 | 6.73 | 6.96
x1 = 0.1667 | 4.94 | 6.02 | 6.37 | 6.62 | 6.95
x1 = 0.1873 | 4.62 | 5.79 | 6.18 | 6.49 | 6.9
x1 = 0.2272 | 4.15 | 5.41 | 5.86 | 6.21 | 6.72
x1 = 0.2878 | 2.67 | 4.01 | 4.52 | 4.94 | 5.62
x1 = 0.3965 | 1.6 | 3.11 | 3.65 | 4.08 | 4.77
x1 = 0.4863 | 0.67 | 1.88 | 2.34 | 2.75 | 3.53
x1 = 0.5274 | 0.69 | 1.74 | 2.17 | 2.58 | 3.35
x1 = 0.6388 | 0.77 | 1.63 | 1.97 | 2.3 | 3.01
x1 = 0.753 | 0.72 | 1.32 | 1.55 | 1.76 | 2.18
x1 = 0.7757 | 0.8 | 1.04 | 1.24 | 1.47 | 1.96
x1 = 0.9045 | 0.26 | 0.38 | 0.11 | 0.14 | 0.32
x1 = 0.9677 | 0.09 | – | – | – | –
